Melting point and IC50 data for 28 compounds are collected here from patent US9126984B2, “4-(indol-3-yl)-pyrazole derivatives, pharmaceutical compositions and methods for use” (ITEOS THERAPEUTICS, priority 2013, dated 2015).

For data set [1], the target named is T1, human recombinant TDO2 enzyme (Homo sapiens, UniProt P48775).
T1 construct: made in house
Nature of the data set: Assay for TDO2 enzymatic activity determination. In kind it is biochemical. Conditions: human recombinant TDO2, L-Trp 1 mM, room temperature one hour, kynurenine absorbance at 480 nm. On the procedure:
To measure the TDO2 activity, the reaction mixture contained (final concentrations) potassium phosphate buffer (50 mM, pH 7.5), ascorbic acid (0.25 M), methylene blue (0.125 μM), catalase (40 units/mL, from bovine liver, Sigma), and human recombinant TDO2 enzyme (prepared as described in Dolusic et al. J. Med. Chem.; 2011, 54, 5320-5334; 0.9 μg) without or with the compounds of the present invention embodiments at the indicated concentrations (total volume 112.5 μL). The reaction was initiated by the addition of 37.5 μL of L-Trp (final concentration 1 mM) at room temperature. The reaction was conducted at room temperature during one hour and stopped by the addition of 30 μL of 30% (w/v) trichloroacetic acid.
To convert N-formylkynurenine into kynurenine, the reaction mixture was incubated at 65° C. for 30 min. Then 150 μL of the reaction mixture was mixed with 120 μL, of 2.5% (w/v) 4-(dimethylamino)-benzaldehyde in acetic acid and incubated for 5 min at room temperature. Kynurenine concentrations were determined by measuring the absorbance at 480 nm. A standard curve was made with pure kynurenine. The TDO activity was measured as described above using ten serial concentrations of certain embodiments of the compounds of the present invention. Data were fitted using the Prism software (GraphPad Software, Inc.).

The target of data set [2] is T2, murine mastocytoma P815 cells overexpressing hTDO2 (Homo sapiens, UniProt P48775).
T2 construct: expressed in transfected cells; host or cells: murine mastocytoma P815 cells
Nature of the data set: Cellular assay for TDO2 activity determination. In kind it is cell-based. To be noted: P815 cells overexpressing hTDO2, overnight incubation at 37° C., kynurenine absorbance at 480 nm. The procedure: The assay was performed in 96-well flat bottom plates seeded with murine mastocytoma P815 cells overexpressing hTDO2 (prepared as described in Pilotte et al., PNAS, 2012, 109(7), 2497-2502), at a concentration of 5×10^4 cells/well in a final volume of 200 μL. To determine TDO or IDO activity, the cells were incubated overnight at 37° C. at 5% CO2 in IMDM (Invitrogen) supplemented with 2% FBS and 2% penicillin/streptomycin in the presence of the compounds of the present invention, at different concentrations.
The plates were then centrifuged 5 min at 1000 rpm, and 100 μL of the supernatant were collected in a conical plate, 30 uL of TCA 30% were added and a further centrifugated at 3000×g for 10 minutes. 100 μL of the supernatant were collected in a flat bottomed plate and 100 μL of 2% (w/v) 4-(dimethylamino)-benzaldehyde in acetic acid and incubated for 5 min at room temperature. Kynurenine concentrations were determined by measuring the absorbance at 480 nm. A standard curve was made with pure kynurenine. The TDO activity was measured as described above using ten serial concentrations of the compounds of the present invention. Data were fitted using the Prism software (GraphPad Software, Inc.).

T2 sequence (P48775 whole entry): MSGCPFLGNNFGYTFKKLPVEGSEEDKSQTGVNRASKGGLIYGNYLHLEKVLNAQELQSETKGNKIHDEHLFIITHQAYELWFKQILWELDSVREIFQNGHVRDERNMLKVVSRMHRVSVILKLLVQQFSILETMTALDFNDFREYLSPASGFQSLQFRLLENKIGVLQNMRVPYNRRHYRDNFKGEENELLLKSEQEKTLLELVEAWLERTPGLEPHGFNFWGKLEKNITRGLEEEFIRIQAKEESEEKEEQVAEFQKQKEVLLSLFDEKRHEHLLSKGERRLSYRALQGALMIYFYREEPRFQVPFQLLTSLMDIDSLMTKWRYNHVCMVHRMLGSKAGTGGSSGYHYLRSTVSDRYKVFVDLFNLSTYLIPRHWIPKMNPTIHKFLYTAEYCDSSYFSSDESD
T1 sequence (P48775 whole entry): as above

By melting point is commonly meant the temperature, or range, at which the solid turns liquid. As usually defined, the IC50 is the point on the concentration scale where inhibition reaches its midpoint. As for `CC(=O)NCCn1cc(-c2c[nH]c3cc(F)ccc23)cn1` [Example 21, N-(2-(4-(6-fluoro-1H-indol-3-yl)-1H-pyrazol-1-yl)ethyl)acetamide], the melting point was 179.5 to 180.8 °C. For the same compound, the IC50 in data set [1] was 1000 to 10000 nM.

Take `OCCn1cc(-c2c[nH]c3cc(F)ccc23)cn1` [Example 26, 2-(4-(6-fluoro-1H-indol-3-yl)-1H-pyrazol-1-yl)ethanol]: the IC50 in data set [2] and in data set [1] was < 1000 nM in each case.

Regarding `Fc1ccc2c(-c3cnn(CCN4CCNCC4)c3)c[nH]c2c1` [Example 27, 6-fluoro-3-(1-(2-(piperazin-1-yl)ethyl)-1H-pyrazol-4-yl)-1H-indole], the IC50 in data set [2] was < 1000 nM; in data set [1], 1000 to 10000 nM.

For the compound `Fc1ccc2c(-c3cnn(CCN4CCCC4)c3)c[nH]c2c1` [Example 29, 6-fluoro-3-(1-(2-(pyrrolidin-1-yl)ethyl)-1H-pyrazol-4-yl)-1H-indole], the IC50 in data set [2] is < 1000 nM; in data set [1] it was 1000 to 10000 nM.

As to `NC(=O)Cn1cc(-c2c[nH]c3cc(F)ccc23)cn1` [Example 38, 2-(4-(6-fluoro-1H-indol-3-yl)-1H-pyrazol-1-yl)acetamide], the IC50 in data set [2] and in data set [1] was 1000 to 10000 nM throughout.

As to `CNC(=O)Cn1cc(-c2c[nH]c3cc(F)ccc23)cn1` [Example 39, 2-(4-(6-fluoro-1H-indol-3-yl)-1H-pyrazol-1-yl)-N-methylacetamide], the IC50 in data set [2] and in data set [1] was 1000 to 10000 nM each time.

As to `CN(C)C(=O)Cn1cc(-c2c[nH]c3cc(F)ccc23)cn1` [Example 40, 2-(4-(6-fluoro-1H-indol-3-yl)-1H-pyrazol-1-yl)-N,N-dimethylacetamide], the IC50 in data set [2] and in data set [1] was 1000 to 10000 nM in each case.

As to `Fc1ccc2c(-c3cnn(CC4CCNCC4)c3)c[nH]c2c1` [Example 43, 6-fluoro-3-(1-(piperidin-4-ylmethyl)-1H-pyrazol-4-yl)-1H-indole], the IC50 in data set [2] and in data set [1] was < 1000 nM in each case.

With `FCCN1CCC(Cn2cc(-c3c[nH]c4cc(F)ccc34)cn2)CC1` [Example 46, 6-fluoro-3-(1-((1-(2-fluoroethyl)piperidin-4-yl)methyl)-1H-pyrazol-4-yl)-1H-indole], the IC50 in data set [2] and in data set [1] was < 1000 nM throughout.

Consider `OCCN1CCC(Cn2cc(-c3c[nH]c4cc(F)ccc34)cn2)CC1` [Example 47, 2-(4-((4-(6-fluoro-1H-indol-3-yl)-1H-pyrazol-1-yl)methyl)piperidin-1-yl)ethanol], for which the figures for the IC50 in data set [2] and in data set [1] were 1000 to 10000 nM and < 1000 nM, respectively.

Turning to `OC(CN1CCC(Cn2cc(-c3c[nH]c4cc(F)ccc34)cn2)CC1)C(F)(F)F` (centres unmarked) [Example 48, 1,1,1-trifluoro-3-(4-((4-(6-fluoro-1H-indol-3-yl)-1H-pyrazol-1-yl)methyl)piperidin-1-yl)propan-2-ol], the IC50 in data set [2] and in data set [1] was < 1000 nM throughout.

As for `CC(=O)N1CCC(Cn2cc(-c3c[nH]c4cc(F)ccc34)cn2)CC1` [Example 51, 1-(4-((4-(6-fluoro-1H-indol-3-yl)-1H-pyrazol-1-yl)methyl)piperidin-1-yl)ethanone], the results for the IC50 in data set [2] and in data set [1] were < 1000 nM and 1000 to 10000 nM, respectively.

For `Fc1ccc2c(-c3cnn(CC4CCN(C5CC5)CC4)c3)c[nH]c2c1` [Example 52, 3-(1-((1-cyclopropylpiperidin-4-yl)methyl)-1H-pyrazol-4-yl)-6-fluoro-1H-indole], the half-maximal inhibitory concentration (IC50) in data set [2] and in data set [1] was < 1000 nM each time.

As to `CN1CCC(Cn2cc(-c3c[nH]c4cc(F)ccc34)cn2)CC1` [Example 53, 6-fluoro-3-(1-((1-methylpiperidin-4-yl)methyl)-1H-pyrazol-4-yl)-1H-indole], the IC50 in data set [2] and in data set [1] was < 1000 nM in each case.

In the case of `CS(=O)(=O)N1CCC(Cn2cc(-c3c[nH]c4cc(F)ccc34)cn2)CC1` [Example 54, 6-fluoro-3-(1-((1-(methylsulfonyl)piperidin-4-yl)methyl)-1H-pyrazol-4-yl)-1H-indole], the IC50 in data set [2] and in data set [1] was 1000 to 10000 nM throughout.

As for `NC(=O)[C@H]1C[C@@H](n2cc(-c3c[nH]c4cc(F)ccc34)cn2)C1` [Example 61, (1S,3R)-3-(4-(6-fluoro-1H-indol-3-yl)-1H-pyrazol-1-yl)cyclobutanecarboxamide], the IC50 in data set [2] was < 1000 nM; in data set [1] it was 1000 to 10000 nM.

`NC(=O)[C@H]1C[C@H](n2cc(-c3c[nH]c4cc(F)ccc34)cn2)C1` [Example 62, (1R,3R)-3-(4-(6-fluoro-1H-indol-3-yl)-1H-pyrazol-1-yl)cyclobutanecarboxamide]: the IC50 in data set [2] and in data set [1] was 1000 to 10000 nM in each case.

Regarding `O[C@H]1CC[C@H](n2cc(-c3c[nH]c4cc(F)ccc34)cn2)CC1` [Example 69, (1R,4R)-4-(4-(6-fluoro-1H-indol-3-yl)-1H-pyrazol-1-yl)cyclohexanol], the IC50 in data set [2] and in data set [1] was 1000 to 10000 nM each time.

Regarding `Fc1ccc2c(-c3cn[nH]c3)c[nH]c2c1` [Example 70, 6-fluoro-3-(1H-pyrazol-4-yl)-1H-indole], the IC50 in data set [2] and in data set [1] was < 1000 nM throughout.

For the compound `Fc1cc2[nH]cc(-c3cn[nH]c3)c2cc1F` [Example 71, 5,6-difluoro-3-(1H-pyrazol-4-yl)-1H-indole], the IC50 in data set [2] and in data set [1] was < 1000 nM each time.

Consider `Cn1cc(-c2c[nH]c3cc(F)ccc23)cn1` [Example 73, 6-fluoro-3-(1-methyl-1H-pyrazol-4-yl)-1H-indole], for which the IC50 in data set [2] and in data set [1] was < 1000 nM in each case.

In the case of `COCC(=O)N1CCC(n2cc(-c3c[nH]c4cc(F)ccc34)cn2)CC1` [Example 85, 1-(4-(4-(6-fluoro-1H-indol-3-yl)-1H-pyrazol-1-yl)piperidin-1-yl)-2-methoxyethanone], the IC50 in data set [2] and in data set [1] was 1000 to 10000 nM each time.

On to `Fc1ccc2c(-c3cnn(-c4cccnn4)c3)c[nH]c2c1` [Example 107, 6-fluoro-3-(1-(pyridazin-3-yl)-1H-pyrazol-4-yl)-1H-indole], for which the IC50 in data set [2] was < 1000 nM; in data set [1], 1000 to 10000 nM.

As to `Nc1ccc(-n2cc(-c3c[nH]c4cc(F)ccc34)cn2)nn1` [Example 109, 6-(4-(6-fluoro-1H-indol-3-yl)-1H-pyrazol-1-yl)pyridazin-3-amine], the IC50 is < 1000 nM in data set [2] and 1000 to 10000 nM in data set [1].

In the case of `Fc1ccc2c(-c3cnn(-c4ccnnc4)c3)c[nH]c2c1` [Example 110, 6-fluoro-3-(1-(pyridazin-4-yl)-1H-pyrazol-4-yl)-1H-indole], the IC50 in data set [2] and in data set [1] was 1000 to 10000 nM throughout.

On to `Fc1ccc2c(-c3cnn(-c4ccccn4)c3)c[nH]c2c1` [Example 111, 6-fluoro-3-(1-(pyridin-2-yl)-1H-pyrazol-4-yl)-1H-indole], for which the IC50 in data set [2] and in data set [1] was < 1000 nM in each case.

For the compound `Fc1ccc2c(-c3cnn(-c4cccnc4)c3)c[nH]c2c1` [Example 112, 6-fluoro-3-(1-(pyridin-3-yl)-1H-pyrazol-4-yl)-1H-indole], the IC50 in data set [2] and in data set [1] was < 1000 nM throughout.

As to `Fc1ccc2c(-c3cnn(-c4ccncc4)c3)c[nH]c2c1` [Example 113, 6-fluoro-3-(1-(pyridin-4-yl)-1H-pyrazol-4-yl)-1H-indole], the IC50 in data set [2] and in data set [1] was < 1000 nM each time.
